According to article PMC6936217 (Science translational medicine, 2019):
Read-outs that look alike come from different tables or passages of the source.

How the values were obtained:
15N-labeled EBNA1 = 15N-labeled EBNA1 (Epstein-Barr virus, UniProt P03211); assay: HSQC NMR with 15N-labeled EBNA1; format: binding; settings: 50 μM ligand
EBNA1 = EBNA1 (Epstein-Barr virus, UniProt P03211); assay: ALPHA proximity DNA binding assay
[1] = read-out: IC50, inhibition of EBNA1 DNA binding, ALPHA proximity assay

Chain of EBNA1 (P03211 459-607): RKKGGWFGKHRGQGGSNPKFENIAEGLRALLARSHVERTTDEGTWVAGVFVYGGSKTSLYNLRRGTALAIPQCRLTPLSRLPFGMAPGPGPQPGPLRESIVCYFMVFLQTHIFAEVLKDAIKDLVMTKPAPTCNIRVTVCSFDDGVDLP
Chain of 15N-labeled EBNA1 (P03211 459-607): as above

SMILES	binding to EBNA1 by chemical shift changes (15N-labeled EBNA1)	IC50 (EBNA1; [1]) [nM]	IC50 (EBNA1) [nM]
O=C(O)c1cccc(C#Cc2ccccc2)c1-n1cccc1 [VK-0497, 2-pyrrolo-3-phenylacetylenyl benzoic acid]	direct binding	890	
O=C(O)c1cncc(C#Cc2ccccc2)c1 [VK-0044, 5-phenylacetylenyl nicotinic acid]			110000
O=C(O)c1ccccc1-n1cccc1 [VK-0064, 2-pyrrolo-benzoic acid]		2000	
